Experiment: xn = mol fraction of the nth substance listed

Nc1cccc(Cl)c1 + Cc1ccccc1Cl
viscosity [mPa·s], 100 kPa
Conditions	x1 = 0.0744	x1 = 0.1659	x1 = 0.2575	x1 = 0.3522	x1 = 0.4708	x1 = 0.5714	x1 = 0.6762	x1 = 0.7838	x1 = 0.8902
303.15 K	1.146	1.462	1.777	2.1	2.502	2.84	3.191	3.548	3.898
308.15 K	1.044	1.329	1.614	1.906	2.267	2.573	2.888	3.209	3.523
313.15 K	0.9401	1.196	1.45	1.71	2.033	2.304	2.585	2.871	3.149
318.15 K	0.8312	1.059	1.283	1.512	1.797	2.036	2.283	2.534	2.778

CCC(=O)O + Cc1ccccc1N
viscosity [mPa·s], 100 kPa
Conditions	x2 = 0.0977	x2 = 0.1983	x2 = 0.2728	x2 = 0.3622	x2 = 0.4952	x2 = 0.5997	x2 = 0.6763	x2 = 0.7449	x2 = 0.8891
303.15 K	1.2	1.45	1.64	1.85	2.16	2.4	2.57	2.72	3.03
308.15 K	1.1	1.31	1.47	1.65	1.91	2.11	2.25	2.38	2.64
313.15 K	1	1.19	1.32	1.48	1.71	1.88	2	2.11	2.33
318.15 K	0.91	1.07	1.18	1.32	1.51	1.66	1.76	1.85	2.03

Nc1cccc(Cl)c1 + Clc1ccccc1
Conditions	viscosity [mPa·s]
308.15 K, 100 kPa, x1 = 0.3821	2.145

O=[N+]([O-])[O-].[Li+] + N
293.15 K, 101 kPa
Conditions	viscosity [mPa·s]
x1 = 0.026	0.168
x1 = 0.059	0.228
x1 = 0.096	0.32
x1 = 0.174	0.602

CCC(=O)O + NC=O
viscosity [mPa·s]
Conditions	298.15 K	303.15 K	308.15 K	313.15 K
101 kPa, x2 = 0.1002	2.15	–	–	1.52
101 kPa, x2 = 0.1949	3.368	–	–	2.231
101 kPa, x2 = 0.2992	4.445	–	–	2.877
101 kPa, x2 = 0.3979	5.67	–	–	3.546
101 kPa, x2 = 0.4976	6.48	–	–	4.16
101 kPa, x2 = 0.5987	6.98	–	–	4.528
101 kPa, x2 = 0.7338	7.19	–	–	4.708
101 kPa, x2 = 0.8115	6.92	–	–	4.48
101 kPa, x2 = 0.9101	5.59	–	–	3.551
101 kPa, x2 = 0.976	3.838	–	–	–
101.33 kPa, x2 = 0.0769	1.4	1.28	1.19	1.09
101.33 kPa, x2 = 0.1507	1.89	1.7	1.57	1.46
101.33 kPa, x2 = 0.2323	2.54	2.25	2.05	1.89
101.33 kPa, x2 = 0.3109	3.21	2.78	2.5	2.27
101.33 kPa, x2 = 0.393	3.83	3.28	2.94	2.64
101.33 kPa, x2 = 0.4098	3.92	3.37	3.01	2.69
101.33 kPa, x2 = 0.4649	4.24	3.62	3.23	2.89
101.33 kPa, x2 = 0.5404	4.48	3.83	3.41	3.03
101.33 kPa, x2 = 0.6138	4.8	4.06	3.6	3.2
101.33 kPa, x2 = 0.6916	4.7	4.01	3.57	3.18
101.33 kPa, x2 = 0.7633	4.49	3.84	3.43	3.07
101.33 kPa, x2 = 0.8461	4.22	3.63	3.26	2.93
101.33 kPa, x2 = 0.9226	3.75	3.25	2.94	2.66

Nc1cccc(Cl)c1 + NCCO
Conditions	viscosity [mPa·s]
308.15 K, 100 kPa, x1 = 0.3619	8.885

CCC(=O)O + Nc1ccccc1
Conditions	viscosity [mPa·s]
298.15 K, 101 kPa, x1 = 0.0996	4.218
298.15 K, 101 kPa, x1 = 0.2015	4.652
298.15 K, 101 kPa, x1 = 0.2966	5.177
298.15 K, 101 kPa, x1 = 0.388	5.87
298.15 K, 101 kPa, x1 = 0.4955	6.898
298.15 K, 101 kPa, x1 = 0.5962	7.775
298.15 K, 101 kPa, x1 = 0.716	7.294
298.15 K, 101 kPa, x1 = 0.7994	5.282
298.15 K, 101 kPa, x1 = 0.895	2.477
308.15 K, 101.33 kPa, x1 = 0.1243	2.912
308.15 K, 101.33 kPa, x1 = 0.2382	3.203
308.15 K, 101.33 kPa, x1 = 0.3507	3.59
308.15 K, 101.33 kPa, x1 = 0.4545	3.971
308.15 K, 101.33 kPa, x1 = 0.5568	4.468
308.15 K, 101.33 kPa, x1 = 0.6544	4.762
308.15 K, 101.33 kPa, x1 = 0.7452	4.169
308.15 K, 101.33 kPa, x1 = 0.7903	3.402
308.15 K, 101.33 kPa, x1 = 0.8345	2.792
308.15 K, 101.33 kPa, x1 = 0.8774	2.008
308.15 K, 101.33 kPa, x1 = 0.918	1.561
308.15 K, 101.33 kPa, x1 = 0.9595	1.168
